Source: ChEMBL document CHEMBL1201862, “PubChem BioAssay data set” (2004)
Values joined by “and” are separate entries in the source; they are usually repeats but may differ in a detail not shown here. Equal entries are not always repeated.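 Interpolation was linear, between the two tested concentrations surrounding the appropriate level; five concentrations were tested over 48 hours in 96-well plates. GI50: concentration for 50% inhibition of growth.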 Active and inactive are the calls of the source. Cut-off read from the data, not from the text of the source: active = GI50 up to about 1.1 µM and inactive = higher.

Experiments:
Assay in all cases: inhibition of tumour cell growth, NCI panel, 48 h
SF-295 = test system: SF-295
SF-268 = test system: SF-268
RPMI-8226 = test system: RPMI-8226
HOP-62 = test system: HOP-62
COLO 205 = test system: COLO 205
IGROV-1 = test system: IGROV-1
NCI-H522 = test system: NCI-H522
KM12 = test system: KM12
EKVX = test system: EKVX
HT-29 = test system: HT-29
SR = test system: SR
TK-10 = test system: TK-10
OVCAR-4 = test system: OVCAR-4
T47D = test system: T47D
HCT-15 = test system: HCT-15
OVCAR-5 = test system: OVCAR-5
HCC 2998 = test system: HCC 2998
A549 = test system: A549
LOX IMVI = test system: LOX IMVI
MCF7 = test system: MCF7
SN12C = test system: SN12C
RXF 393 = test system: RXF 393
A498 = test system: A498
PC-3 = test system: PC-3
NCI-H23 = test system: NCI-H23
Malme-3M = test system: Malme-3M
SK-MEL-28 = test system: SK-MEL-28
MDA-MB-231 = test system: MDA-MB-231
SF-539 = test system: SF-539
NCI-H460 = test system: NCI-H460
M14 = test system: M14
CCRF-CEM = test system: CCRF-CEM
U-251 = test system: U-251
ACHN = test system: ACHN
HCT-116 = test system: HCT-116
HL-60 = test system: HL-60
Hs-578T = test system: Hs-578T
SK-OV-3 = test system: SK-OV-3
SW-620 = test system: SW-620
MDA-MB-435 = test system: MDA-MB-435
SNB-75 = test system: SNB-75
SK-MEL-2 = test system: SK-MEL-2
UO-31 = test system: UO-31
UACC-62 = test system: UACC-62
NCI/ADR-RES = test system: NCI/ADR-RES
OVCAR-3 = test system: OVCAR-3
DU-145 = test system: DU-145
NCI-H226 = test system: NCI-H226
SNB-19 = test system: SNB-19
CAKI-1 = test system: CAKI-1
SK-MEL-5 = test system: SK-MEL-5
MOLT-4 = test system: MOLT-4
OVCAR-8 = test system: OVCAR-8
UACC-257 = test system: UACC-257
HOP-92 = test system: HOP-92
786-0 = test system: 786-0

For O=c1c2c(nc3[nH]ccn13)CCCC2, the GI50 (SF-295) was > 10 µM (inactive), the GI50 (SF-268) was > 10 µM (inactive) and the GI50 (RPMI-8226) was > 10 µM (inactive). For the same compound, the GI50 (HOP-62) was > 10 µM (inactive), the GI50 (COLO 205) was > 10 µM (inactive) and the GI50 (IGROV-1) was > 10 µM (inactive). For the same compound, the GI50 (NCI-H522) was > 10 µM (inactive), the GI50 (KM12) was > 10 µM (inactive) and the GI50 (EKVX) was > 10 µM (inactive). The GI50 (HT-29) was > 10 µM (inactive), the GI50 (SR) was > 10 µM (inactive) and the GI50 (TK-10) was > 10 µM (inactive). The GI50 (OVCAR-4) was > 10 µM (inactive), the GI50 (T47D) was > 10 µM (inactive) and the GI50 (HCT-15) was greater than 10 µM. The GI50 (OVCAR-5) was > 10 µM (inactive), the GI50 (HCC 2998) was > 10 µM (inactive) and the GI50 (A549) was > 10 µM (inactive). For the same compound, the GI50 (LOX IMVI) was > 10 µM (inactive), the GI50 (MCF7) was > 10 µM (inactive) and the GI50 (SN12C) was > 10 µM (inactive). For the same compound, the GI50 (RXF 393) was > 10 µM (inactive), the GI50 (A498) was > 10 µM (inactive) and the GI50 (PC-3) was > 10 µM (inactive). The GI50 (NCI-H23) was > 10 µM (inactive), the GI50 (Malme-3M) was > 10 µM (inactive) and the GI50 (SK-MEL-28) was > 10 µM (inactive). For the same compound, the GI50 (MDA-MB-231) was > 10 µM (inactive), the GI50 (SF-539) was > 10 µM (inactive) and the GI50 (NCI-H460) was > 10 µM (inactive). For the same compound, the GI50 (M14) was > 10 µM (inactive), the GI50 (CCRF-CEM) was > 10 µM (inactive) and the GI50 (U-251) was > 10 µM (inactive). The GI50 (ACHN) was > 10 µM (inactive), the GI50 (HCT-116) was > 10 µM (inactive) and the GI50 (HL-60) was > 10 µM (inactive). For the same compound, the GI50 (Hs-578T) was 1.23 µM (inactive), the GI50 (SK-OV-3) was > 10 µM (inactive) and the GI50 (SW-620) was > 10 µM (inactive). For the same compound, the GI50 (MDA-MB-435) was > 10 µM (inactive), the GI50 (SNB-75) was > 10 µM (inactive) and the GI50 (SK-MEL-2) was > 10 µM (inactive). The GI50 (UO-31) was > 10 µM (inactive), the GI50 (UACC-62) was > 10 µM (inactive) and the GI50 (NCI/ADR-RES) was > 10 µM (inactive). The GI50 (OVCAR-3) was > 10 µM (inactive), the GI50 (DU-145) was > 10 µM (inactive) and the GI50 (NCI-H226) was > 10 µM (inactive). The GI50 (SNB-19) was > 10 µM (inactive), the GI50 (CAKI-1) was > 10 µM (inactive) and the GI50 (SK-MEL-5) was > 10 µM (inactive). The GI50 (MOLT-4) was > 10 µM (inactive) and the GI50 (OVCAR-8) was > 10 µM (inactive).

For CC(Nc1n[nH]c(=O)c2c1nnn2Cc1ccccc1)c1ccccc1 (stereo unspecified), the GI50 (SF-295) was 34.4 µM (inactive) and 17.8 µM (inactive), the GI50 (RPMI-8226) was 72.8 µM (inactive) and the GI50 (COLO 205) was 77.4 µM (inactive) and 96.2 µM (inactive). For the same compound, the GI50 (KM12) was > 100 µM (inactive), the GI50 (EKVX) was > 100 µM (inactive) and the GI50 (HT-29) was 12.2 µM (inactive). For the same compound, the GI50 (HCT-15) was greater than 100 µM, the GI50 (UACC-257) was 50.6 µM (inactive) and 71 µM (inactive) and the GI50 (OVCAR-5) was > 100 µM (inactive). For the same compound, the GI50 (HCC 2998) was > 100 µM (inactive), the GI50 (A549) was 23.8 µM (inactive) and 36 µM (inactive) and the GI50 (MCF7) was 31.9 µM (inactive) and 29.1 µM (inactive). The GI50 (SN12C) was > 100 µM (inactive), the GI50 (SK-MEL-28) was > 100 µM (inactive) and 55.1 µM (inactive) and the GI50 (M14) was > 100 µM (inactive). For the same compound, the GI50 (CCRF-CEM) was > 100 µM (inactive), the GI50 (U-251) was 26.1 µM (inactive) and 37.1 µM (inactive) and the GI50 (ACHN) was 52.7 µM (inactive). For the same compound, the GI50 (HCT-116) was 24.3 µM (inactive) and 27.5 µM (inactive), the GI50 (MDA-MB-435) was 17.3 µM (inactive) and 22.3 µM (inactive) and the GI50 (HOP-92) was 22.8 µM (inactive) and 23.9 µM (inactive). The GI50 (786-0) was 16.5 µM (inactive), the GI50 (NCI/ADR-RES) was > 100 µM (inactive) and 57.8 µM (inactive) and the GI50 (OVCAR-3) was > 100 µM (inactive) and 53.5 µM (inactive). The GI50 (DU-145) was > 100 µM (inactive), the GI50 (CAKI-1) was 18.6 µM (inactive) and 34.1 µM (inactive) and the GI50 (SK-MEL-5) was 18.8 µM (inactive) and 21.5 µM (inactive). The GI50 (MOLT-4) was 56.9 µM (inactive) and 37.2 µM (inactive).
